The text below walks through data of ChEMBL document CHEMBL3108774, “Azaindoles: noncovalent DprE1 inhibitors from scaffold morphing efforts, kill Mycobacterium tuberculosis and are efficacious in vivo” (J Med Chem, 2013).

Holding throughout (assay type): functional
Assay [1] concerns Mycobacterium tuberculosis. The experiment in a line: Antimicrobial activity against Mycobacterium tuberculosis H37Rv ATCC 27294 harboring DprE1 Y314H mutant assessed as growth inhibition after 5 days by microdilution method.
Assay [2] relates to Mycobacterium tuberculosis. Nature of the assay: Antimicrobial activity against Mycobacterium tuberculosis H37Rv ATCC 27294 overexpressing DprE1 assessed as growth inhibition after 5 days by microdilution method. The settings on record: H37Rv ATCC 27294, 120 h.
In assay [3] the test system is Mycobacterium tuberculosis. The experiment in a line: Antimicrobial activity against Mycobacterium tuberculosis H37Rv ATCC 27294 harboring DprE1 C387S mutant assessed as growth inhibition after 5 days by microdilution method.
Assay [4] concerns Mycobacterium tuberculosis. The experiment in a line: Antimicrobial activity against Mycobacterium tuberculosis H37Rv ATCC 27294 harboring DprE1 C387G mutant assessed as growth inhibition after 5 days by microdilution method.

The structures appear in SMILES notation. In brackets after ≈: the same amount, converted by molar mass. Some results are limits rather than exact numbers.

As for `COc1ncnc(Cn2cc(C(=O)NCCF)c3ncccc32)c1C`, the minimal inhibitory concentration (MIC) was >100 µM in assay [1], 50 µM (≈ 17.2 µg/mL) in assay [2], 3.12 µM (≈ 1.07 µg/mL) in assay [3] and 0.78 µM (≈ 0.268 µg/mL) in assay [4].
On the same counts, the results for `COc1ncnc(Cn2cc(C(=O)NCCF)c3ncc(C)cc32)c1C` are >200 µM, 6.25 µM (≈ 2.23 µg/mL), 0.39 µM (≈ 0.139 µg/mL) and 0.39 µM (≈ 0.139 µg/mL).
On the same counts, the results for `COc1ncnc(Cn2cc(C(=O)NCCO)c3ncc(C)cc32)c1C` [TBA-7371] are >200 µM, 100 µM (≈ 35.5 µg/mL), 0.39 µM (≈ 0.139 µg/mL) and 0.78 µM (≈ 0.277 µg/mL).
